One data set relates to Rat hepatocytes. The experiment in a line: GSH trapping assay. Particulars: 30 μM, 24 hr incubation, LC-MS detection of GSH adducts. The data set is classed as in vitro ADME. The method, then: Rat hepatocytes were isolated from male Sprague-Dawley rats (Vivo Biotech Ltd, HYD, India), weighing 230 to 280 g by the two step collagenase perfusion method (seglen, 1976; Berry M N and Friend D S.1969). Rat hepatocytes were cultured in Dulbecco's Modified Eagle's Medium (DMEM, Gibco®, USA) supplemented with 10^−6M dexamethasone (Gibco®), 5% fetal bovine serum (Gibco®) and cocktail-A mix (CM3000, Gibco®) containing HEPES buffer (PH 7.4), GlutaMAX™, human recombinant insulin, penicillin and streptomycin. Initial cell viability assessed by Trypanblue stain 0.4% (Sigma, UK) and viability more than 80% were considered for culturing. Hepatocytes were seeded in 96 well type-I collagen coated plates (Gibco®) at 4×10^4 cells/well in 100 μL of the culture medium and incubated at 37° C. in 5% CO2 and 95% relative humidity (RH) for 4 hr of cell attachment.
After 4hr incubation, rat hepatocytes were washed twice with pre-warmed (37° C.) DMEM incubation medium supplemented with 10^−7M dexamethasone and cell maintenance cocktail-B (CM4000, Gibco®) solution to remove unattached cells. Post washing hepatocytes were treated with test and reference compounds in incubation medium at single concentration (30 μM) in duplicate and incubate further for 24 hr at 37° C. with 5% CO2 and 95% RH. The final concentration of DMSO in medium was 0.5%.
Post 24 hr incubation, hepatocyte samples were quenched with equal volumes of acetonitrile containing 0.1% formic acid followed by vortex mix, sonicate and centrifuge at 12000 rpm at room temperature for 5 min. Supernatant samples were analyzed for GSH adducts on a C18 reverse-phase column (Xbridge™ Shield, C18, 4.6×150 mm, 3.5 μm) with solvent A (10 mM ammonium formate and 0.1% formic acid/water) and solvent B (0.1% formic acid/acetonitrile).
The column was eluted with 5% B for 5 min and then with a linear gradient to 20% B over 10 min and it was maintained upto 15 min, then it was increased linearly to 40% B upto 27 min and then increase to 90% B upto 29 min, and then equilibrate back the column to 5% B upto 33 min at a flow rate of 0.6 ml/min. The column effluent was directed into the ESI source of a LTQ Velos Orbitrap mass spectrometer (Thermo Fisher Scientific, San Jose, Calif.). The ESI conditions were as follows: sheath gas flow rate, 40 arbitrary units; auxiliary gas, 30 arbitrary units; spray voltage, 4.5 kV; capillary temperature, 230° C.; capillary voltage, 30 V; and tube lens offset, 25 V. Data were acquired in positive ion mode using Xcalibur software (Thermo Fisher Scientific) with one full scan followed by two data-dependent scans of the most intense and the second most intense ions. During the data interpretation the characteristic fragments of neutral loss of glycine (75.0320 Da), pyroglutamic acid (129.0426 Da) and loss of neutral moiety GSH (307.0838 Da) and/or a specific fragment of (GSH+H)^+ (m/z 308.0911) were monitored. Finally, the fragments ions with m/z e.g. 179.0485, 177.0328 and 162.0219 Da, which were derived from the glutathione moiety were used to report GSH positive results.

Data set [1] addresses T1, human ProRS (prolyl tRNA synthetase moiety of glutamyl prolyl tRNA synthetase) (Homo sapiens, UniProt P07814).
T1 construct: The prolyl tRNA synthetase moiety (ProRS) in the cDNA of glutamyl prolyl tRNA synthetase was subcloned; 6xHis (N, cleaved yes); made in house; host or cells: E. coli BL21 (DE3)
T1 sequence (P07814 1007-1512 limits assumed): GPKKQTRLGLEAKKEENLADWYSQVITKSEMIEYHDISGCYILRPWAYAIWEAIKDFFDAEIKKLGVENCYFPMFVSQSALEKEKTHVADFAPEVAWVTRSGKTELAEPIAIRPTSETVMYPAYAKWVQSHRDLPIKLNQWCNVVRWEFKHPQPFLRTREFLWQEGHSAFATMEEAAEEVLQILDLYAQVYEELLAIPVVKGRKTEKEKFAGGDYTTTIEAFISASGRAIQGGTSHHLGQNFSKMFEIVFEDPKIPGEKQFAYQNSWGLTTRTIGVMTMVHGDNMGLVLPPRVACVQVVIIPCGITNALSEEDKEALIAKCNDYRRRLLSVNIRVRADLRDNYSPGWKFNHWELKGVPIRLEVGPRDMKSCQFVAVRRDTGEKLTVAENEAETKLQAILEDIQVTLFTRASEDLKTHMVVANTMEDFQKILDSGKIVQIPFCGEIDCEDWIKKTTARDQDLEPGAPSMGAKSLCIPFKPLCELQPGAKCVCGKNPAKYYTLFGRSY
The experiment in a line: Assay for inhibitors of prolyl tRNA synthetase activity (ProRS assay, labeled proline incorporation). Conditions: ProRS 20 nM, compounds 10 μM to 0.5 nM, 10 min at 37° C.; read-out: EPR IC50. In kind it is biochemical. The text has this:
In order to establish the activities of the compounds highlighted above, we determined extent of inhibition of prolyl tRNA synthetase activity in dose response curves to obtain IC50 values.
The prolyl tRNA synthetase moiety (ProRS) in the cDNA of glutamyl prolyl tRNA synthetase was subcloned, tagged with a single biotin, purified and used in the assay. Briefly, human ProRS with a 6× N-terminal His tag in pET28N with TVMV BioP was transformed in E. coli BL21 (DE3) cells, selected, overexpressed and purified using a Ni Seph 6 FF XK 16/20 column in the first stage. Ni-NTA eluates were pooled and treated with TVMV protease, and biotinylated using d-Biotin, MgCl2, ATP and the BirA enzyme. This was rerun through a Ni column as before. The eluates were further enriched and purified using membrane ultrafiltration and a SuperDex 200 XK 16/60 column, and peak fractions were confirmed by SDS-PAGE prior to protein amount determination, aliquoting and storage at −80° C.
ProRS assay was performed in 96 well plates in a final reaction volume of 20 μl, using staggered additions of Tris-Cl (pH 7.5, 60 mM), dithiothreitol (2 mM), ATP (5 mM, pH 7.0), MgCl2 6 mM), ProRS (20 nM, with pre-determined active fraction range) and bovine tRNA (20 μg). Controls and compounds, at various concentrations (10 μM to 0.5 nM), were incubated on ice with enzyme mix for 15 min followed by addition of proline (non-labeled and labeled, 3.96 and 1.04 μM (1 μCi) respectively) to initiate the reaction. Reaction was carried out for 10 min at 37° C. and terminated by addition of TCA (10%, 100 μl). Reaction mix was collected on a Whatman GF/B filter using a vacuum filtration manifold. This filter was washed 3 times with 5% TCA followed by 2 washes with ethanol, air dried, and read using a liquid scintillation counter (TopCount NXT) using MicroScint O. IC50 values were calculated and analyzed using ToolSet (4-parameter plot) and depicted herein.

In the case of `Cc1cc(C(F)(F)F)nc2c(=O)n(C[C@@H](O)C[C@H]3NCCC[C@@H]3O)cnc12` [Example 31, 3-{(S)-2-hydroxy-3-[(2R,3S)-3-hydroxypiperidin-2-yl]propyl}-8-methyl-6-(trifluoromethyl)pyrido[3,2-d]pyrimidin-4(3H)-one bis(2,2,2-trifluoroacetic acid)], the GSH adduct formation result in the data set on Rat hepatocytes was “Negative”. Moreover, the IC50 in data set [1] came to 416 nM.
For `Cc1cc(Cl)cn2c(=O)c(NC(=O)C[C@H]3NCCC[C@@H]3O)cnc12.Cl` [Example 39, N-(7-Chloro-9-methyl-4-oxo-4H-pyrido [1,2-a]pyrimidin-3-yl)-2-[(2R, 3S)-3-hydroxypiperidin-2-yl]acetamide hydrochloride] the same measures were “Negative” and 301 nM.

The values are drawn from patent publication US20210122746A1, “FEBRIFUGINE DERIVATIVES” (BRISTOL-MYERS SQUIBB COMPANY, priority 2017, published 2021).
